Several values for one entry are separate records, joined by “and”; a condition that tells them apart may be missing. Equal entries are not always repeated.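 Interpolation was linear, between the two tested concentrations surrounding the appropriate level; five concentrations were tested over 48 hours in 96-well plates. GI50 marks 50% less growth. At the TGI there is no net growth.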 *1 amine or outer side, *2 acyl side, *3 side chain or, on linkers, in order; H or OH if unused. Where a SMILES comes first, the peptide text is derived from it. Bridges are numbered along the chain shown (N, C = ends). Roman numbers before positions name the chains, in order. [ ]: non-standard residue; d: D form. Actinocin(9to1) = Cc1c2oc3c(C)ccc(C(=O)[*:1])c3nc-2c(C(=O)[*:2])c(N)c1=O; NMeF = CN[CH](Cc1ccccc1)C(=O)O; Sar = CNCC(=O)O

TGI and GI50 data for 11 compounds are collected here from PubChem BioAssay (NCI).

Test systems include UACC-257 melanoma; SF-268 CNS; HCT-116 colon; SW-620 colon; NCI-H23 lung; OVCAR-3 ovarian; ACHN renal; NCI-H460 lung.
What all share (assay): NCI tumour cell line growth inhibition, 48 h

Turning to `Oc1c(CN2CCN(c3ccccc3)CC2)cc(Br)c2cccnc12`, the TGI was more than 100 µM in the assay with UACC-257 melanoma; more than 71 µM in the assay on SF-268 CNS; more than 28.4 µM in the assay with HCT-116 colon; more than 100 µM in the assay with SW-620 colon; more than 100 µM with NCI-H23 lung; more than 79.5 µM in the assay with OVCAR-3 ovarian. Further, the TGI in the assay with ACHN renal is more than 34.4 µM.
For the compound `CS(=O)(=O)N(c1cc(-c2ccc3ncnc(Nc4cccc(Cl)c4)c3c2)cnc1Cl)S(C)(=O)=O`, the GI50 with SF-268 CNS was 0.49 µM; in the assay with HCT-116 colon, 0.622 µM; in the assay on SW-620 colon it was 0.742 µM; in the assay on NCI-H23 lung, 0.417 µM; with OVCAR-3 ovarian, 0.333 µM; in the assay with NCI-H460 lung, 0.591 µM. Further, the GI50 in the assay on ACHN renal is 0.412 µM. Moreover, the TGI in the assay on SF-268 CNS was 12.7 µM; in the assay on HCT-116 colon, 3.74 µM; with SW-620 colon, 13.4 µM; with NCI-H23 lung, 3.72 µM; in the assay with OVCAR-3 ovarian, 1.88 µM; in the assay with NCI-H460 lung, more than 100 µM. This compound yielded a TGI in the assay with ACHN renal of more than 100 µM.
On to `CCN(CC)c1ccc(/C=C/C=C2\NC(=O)NC2=O)cc1`, for which the GI50 with SF-268 CNS was 8.51 µM; in the assay on HCT-116 colon, 1.6 µM; with SW-620 colon, 3.77 µM; with NCI-H23 lung, 11.2 µM; in the assay on OVCAR-3 ovarian, 1.95 µM; in the assay with NCI-H460 lung, 3.03 µM. The GI50 in the assay on ACHN renal is 7.24 µM. The TGI is more than 100 µM in the assay on SF-268 CNS; 30.6 µM in the assay on HCT-116 colon; more than 100 µM in the assay with SW-620 colon; more than 100 µM in the assay on NCI-H23 lung; 5.29 µM in the assay with OVCAR-3 ovarian; 16.1 µM in the assay on NCI-H460 lung. The compound further registered a TGI in the assay with ACHN renal of more than 100 µM.
In the case of `O=Nc1c(-c2c(O)[nH]c3ccc(Br)cc23)[nH]c2ccccc12`, the GI50 in the assay on UACC-257 melanoma is 15 µM; in the assay with SF-268 CNS, 3.75 µM; in the assay on SW-620 colon it was 3.64 µM; in the assay on NCI-H23 lung it was 3.13 µM; with OVCAR-3 ovarian it was 4.03 µM; in the assay with NCI-H460 lung, 2.4 µM. In addition, the GI50 in the assay on ACHN renal is 2.25 µM. Further, the TGI with UACC-257 melanoma was more than 100 µM; in the assay with SF-268 CNS it was 22.6 µM; in the assay on SW-620 colon it was 9.41 µM; with NCI-H23 lung it was 12.8 µM; in the assay with OVCAR-3 ovarian it was 67.3 µM; in the assay on NCI-H460 lung it was 5.99 µM. The TGI in the assay with ACHN renal is 7.69 µM.
On to `O=C1OCC2=C1C(c1ccccc1)c1cc3c(cc1N2CCO)OCCO3` (stereo unspecified), for which the GI50 in the assay on SF-268 CNS was 0.617 µM; with HCT-116 colon it was 0.226 µM; in the assay with SW-620 colon it was 0.224 µM; in the assay with NCI-H23 lung it was 0.448 µM; in the assay on OVCAR-3 ovarian it was 0.132 µM; in the assay with NCI-H460 lung it was 0.193 µM. In addition, the GI50 in the assay with ACHN renal is 0.493 µM. Also, the TGI in the assay with SF-268 CNS was more than 35.3 µM; in the assay with HCT-116 colon, more than 18.7 µM; with SW-620 colon, more than 50 µM; in the assay with NCI-H23 lung, more than 50 µM; in the assay on OVCAR-3 ovarian, 0.312 µM; with NCI-H460 lung it was 1.96 µM. In the assay with ACHN renal, the TGI was more than 50 µM.
`CCSc1ccc(C2C(Br)C(=O)N2c2cc(OC)c(OC)c(OC)c2)cc1` (stereo unspecified): the GI50 in the assay with UACC-257 melanoma was 14.3 µM; in the assay on SF-268 CNS, 1.18 µM; in the assay with HCT-116 colon, 0.222 µM; in the assay with SW-620 colon, 0.236 µM; with NCI-H23 lung, 0.478 µM; with OVCAR-3 ovarian, 0.109 µM. In the assay with NCI-H460 lung, the GI50 is 0.539 µM. Also, the TGI with UACC-257 melanoma was more than 100 µM; in the assay on SF-268 CNS, 52.7 µM; with HCT-116 colon, 10.6 µM; in the assay with SW-620 colon, 20.3 µM; in the assay with NCI-H23 lung it was 73.4 µM; in the assay with OVCAR-3 ovarian, 0.73 µM. The TGI in the assay on NCI-H460 lung was 14.2 µM.
On to `O=C(O)/C(=C\c1ccncc1)c1cccc2ccccc12`, for which the TGI was 30.7 µM in the assay with UACC-257 melanoma; more than 100 µM with SF-268 CNS; more than 100 µM with HCT-116 colon; more than 100 µM in the assay with SW-620 colon; more than 100 µM in the assay on NCI-H23 lung; more than 100 µM in the assay on OVCAR-3 ovarian. In the assay on NCI-H460 lung, the TGI was more than 100 µM.
Take `O=C(CCCCC(=O)N/N=C\c1ccccc1O)N/N=C\c1ccccc1O`: the GI50 in the assay with SF-268 CNS is 1.72 µM; with HCT-116 colon, 3.69 µM; in the assay with OVCAR-3 ovarian, 3.87 µM; with NCI-H460 lung, 3.14 µM; in the assay with ACHN renal, 3.53 µM. Besides, the TGI in the assay with SF-268 CNS, in the assay on HCT-116 colon, in the assay with OVCAR-3 ovarian, with NCI-H460 lung and in the assay on ACHN renal was more than 100 µM throughout.
As for `Cc1c(Cl)cccc1NC(=O)c1sc2nc3c(cc2c1N)CCCCC3`, the GI50 was 0.426 µM with SF-268 CNS; 0.196 µM in the assay on HCT-116 colon; 0.232 µM in the assay on SW-620 colon; 0.391 µM in the assay on NCI-H23 lung; 0.173 µM in the assay on OVCAR-3 ovarian; 0.234 µM with NCI-H460 lung. Moreover, the GI50 in the assay on ACHN renal is 0.449 µM. For the same compound, the TGI was more than 50 µM in the assay on SF-268 CNS; more than 50 µM in the assay with HCT-116 colon; more than 50 µM in the assay with SW-620 colon; more than 50 µM with NCI-H23 lung; 1.69 µM with OVCAR-3 ovarian; 8 µM with NCI-H460 lung. In the assay with ACHN renal, this compound had a TGI of more than 50 µM.
As for `C[C@@H](Nc1nc(Nc2ccc(F)c(Cl)c2)nc2ccccc12)C1CC1`, the GI50 was 6.43 µM in the assay with SF-268 CNS; 1.49 µM in the assay with HCT-116 colon; 3.14 µM in the assay on SW-620 colon; 1.48 µM in the assay on NCI-H23 lung; 3.21 µM with OVCAR-3 ovarian; 3.12 µM in the assay on NCI-H460 lung. The GI50 in the assay with ACHN renal is 4.11 µM. Moreover, the TGI with SF-268 CNS is 26.8 µM; with HCT-116 colon, 3.2 µM; in the assay on SW-620 colon it was 13.9 µM; with NCI-H23 lung, 9.34 µM; in the assay with OVCAR-3 ovarian it was 12.7 µM; in the assay on NCI-H460 lung it was 19.3 µM. Moreover, the TGI in the assay with ACHN renal came to 17.3 µM.
`Cc1c2oc3c(C)ccc(C(=O)NC4C(=O)NC(C(C)C)C(=O)N5CCCC5C(=O)N(C)CC(=O)N(C)C(Cc5ccccc5)C(=O)OC4C)c3nc-2c(C(=O)NC2C(=O)NC(C(C)C)C(=O)N3CCCC3C(=O)N(C)CC(=O)N(C)C(Cc3ccccc3)C(=O)OC2C)c(N)c1=O` (stereo unspecified) (I: TVP[Sar][NMeF] / II: TVP[Sar][NMeF]; ester I:1-I:C, II:1-II:C; linker I:N-II:N via Actinocin(9to1); configuration not given here): the TGI in the assay on SF-268 CNS was more than 0.674 µM; in the assay on HCT-116 colon, 0.194 µM and > 1 µM; in the assay on SW-620 colon, 1.27 µM and 0.139 µM; in the assay on NCI-H23 lung, < 0.01 µM and 0.0376 µM; with OVCAR-3 ovarian, < 0.01 µM and 0.0453 µM; with NCI-H460 lung, < 0.01 µM and 0.0206 µM. The TGI with ACHN renal is more than 1 µM. Also, the GI50 in the assay on HCT-116 colon was less than 0.01 µM; in the assay on NCI-H460 lung it was < 0.01 µM and 0.00074 µM.
